Experimental data: PMC8405639, “2-Carba-lysophosphatidic acid is a novel β-lysophosphatidic acid analogue with high potential for lysophosphatidic acid receptor activation and autotaxin inhibition” (Scientific Reports, 2021)
Each block holds one compound with its values, some of them ahead of it.

Tests used:
[1] = system: extracellular signal-regulated kinase (ERK) phosphorylation; experiment: Western blot analysis of phosphorylated ERK in HeLa cells; type: cell-based; conditions: HeLa cells, 10 µM, 5 min, 37 °C, western blot
Experimental: Figure 3 Effects of 2-carba-lysophosphatidic acid (2carbaLPA) on the phosphorylation of the extracellular signal-regulated kinase (ERK) protein. HeLa cells were preincubated with 10 µM Ki16425 for 30 min at 37 °C and then incubated with 10 µM 2carbaLPA, lysophosphatidic acid (LPA) 18:1, or vehicle for 5 min at 37 °C. Protein levels of phosphorylated ERK, total ERK, and α-tubulin were determined by western blot analysis. The full-length blots are shown in the Supplementary Fig. S2.
HeLa cells were obtained from RIKEN RBC Cell Bank (Tsukuba, Japan). […] Cells were harvested using 0.125 M Tris–HCl (pH 6.8) supplemented with 4% sodium dodecyl sulphate (SDS), 20% glycerol, 10% 2-mercaptoethanol, and 0.01% bromophenol blue. Proteins were separated by SDS–polyacrylamide gel electrophoresis, and the proteins were transferred onto an Immobilon-P Transfer Membrane (Millipore, Burlington, MA, USA). The membrane was incubated with primary antibodies: anti-phospho-ERK (pERK), anti-ERK, and anti-tubulin (all at 1:1,000 dilution, Cell Signaling Technology, Danvers, MA, USA). Next, after washing, the membrane was treated with horseradish peroxidase-conjugated anti-rabbit IgG (1:1000 dilution; Cell Signaling Technology). Immunodetection was performed using an enhanced chemiluminescence system (EzWestLumi plus, ATTO Corporation, Tokyo, Japan) and ImageQuant LAS 4000 (GE healthcare, Buckinghamshire, UK).

[2] = system: LPA4; conditions: Ca2+ mobilization, RH7777 and CHO cells, less than 2 min incubation ref 17; cited from earlier work
[3] = system: LPA3; conditions: Ca2+ mobilization, RH7777 and CHO cells, less than 2 min incubation ref 17; cited from earlier work
[4] = cPA analogue stability in the 293A cell medium; type: in vitro ADME; conditions: 10 µM, 37 °C, 293A (HEK) cell medium
Experimental: Supplementary Figure S3. Cyclic phosphatidic acid (cPA) analogue stability in the HEK cell medium. Each cPA analogue (final concentration: 10 µM) was incubated with the HEK cell medium for 1 h at 37 °C. The remaining cPA analogue was quantified using liquid chromatography with tandem mass spectrometry (LC-QqQ) and calculated based on the percentage (%) ratio of the final concentration after incubation to the initial concentration. Data are represented as mean ± standard deviation (n = 3 samples).
293A cells were prepared in Hank’s balanced salt solution (HBSS) in 96-well plates. […] After incubation for 1 h at 37 ℃, 80 µL of the supernatant was collected and mixed with 320 µL of acidic methanol, including LPA 17:0 and cPA 17:0 (final concentration: 0.2 µM each; Avanti Polar Lipids, Alabaster, AL, USA).

[5] = Degradation under acidic conditions (artificial gastric juice); type: physicochemical; conditions: artificial gastric juice pH 1.2, 2 h, 37 °C
Experimental: 2ccPA was dissolved in artificial gastric juice (2 g NaCl and 12 M HCl 7 mL/1000 mL water at pH 1.2) at a final concentration of 1 mg/mL and incubated for 2 h at 37 °C. Lipid fraction was extracted by 4 volumes of chloroform/methanol (2:1, v/v) and separated by TLC as per previously reported. Extraction from the silica powder of TLC was performed by addition of 8 mL of chloroform/methanol (1:9, v/v) and it was repeated three times. After filtration (0.2 μm Captiva Premium syringe PTFE filter, Agilent Technologies, Santa Clara, CA, USA), the sample was diluted 100-fold with 5 mM ammonium formate in methanol/water (95:5, v/v) and subjected to QqTOF. The 3ccPA degradation compound was also prepared using the same method. The purity of the degradation compound was confirmed to be more than 95% by TLC, QqTOF, and LC-QqQ. Quantification was performed by weighing the purified sample after dried more than 24 h in the desiccator equipped with a vacuum pump.

SMILES: CCCCCCCC/C=C\CCCCCCCC(=O)OCC(CO)CP(=O)(O)O (centres unmarked) [2carbaLPA 18:1, 2-carba-lysophosphatidic acid]
ERK phosphorylation (activation) [1]: activated ERK

Stability during 1 h [4]: mostly stable
SMILES: CCCCCCCC/C=C\CCCCCCCC(=O)OC[C@@H](O)CCP(=O)(O)O [3carba LPA 18:1, 3-carba-lysophosphatidic acid]
Activity relative to LPA (times weaker), LPA4 [2]: more than 10 times
Activity relative to LPA (times weaker), LPA3 [3]: more than 10 times

SMILES: CCCCCCCC/C=C\CCCCCCCC(=O)OC[C@@H]1CCP(=O)(O)O1 [3ccPA 18:1, 3-carba-cyclic phosphatidic acid]
Conversion under acidic condition [5]: converted to the corresponding 3-carba-lysophosphatidic acid
